Experimental data reported in patent US20090318446A1, “4-(1H-Indol-3-yl)-Pyrimidin-2-Ylamine Derivatives and Their Use in Therapy” (Cyclacel Limited, priority 2005, published 2009).
pIC50: −log10 of the molar value.

How the values were obtained:
aurora-A = molecular target: T1, aurora-A (Homo sapiens, UniProt O14965); experiment: Aurora-A (human) kinase assay; format: biochemical; settings: Table 3, values without asterisk; read-out: Kinase inhibition Aurora A
T1 construct: purchased Upstate, Dundee, UK
T1 sequence (O14965 1-403): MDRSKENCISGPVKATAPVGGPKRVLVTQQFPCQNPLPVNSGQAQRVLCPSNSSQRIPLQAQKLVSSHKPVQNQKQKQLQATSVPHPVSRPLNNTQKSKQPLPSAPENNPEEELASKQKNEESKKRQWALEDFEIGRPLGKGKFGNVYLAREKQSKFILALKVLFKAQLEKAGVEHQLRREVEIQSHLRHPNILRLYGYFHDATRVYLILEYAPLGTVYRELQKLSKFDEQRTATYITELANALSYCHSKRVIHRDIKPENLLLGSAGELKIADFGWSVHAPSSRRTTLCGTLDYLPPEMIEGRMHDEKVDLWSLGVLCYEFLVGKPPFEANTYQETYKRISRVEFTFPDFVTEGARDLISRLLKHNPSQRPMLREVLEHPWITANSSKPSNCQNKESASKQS
Procedure: (§1) This was achieved by measurement of incorporation of radioactive phosphate from ATP into Kemptide substrate (LRRASLG), upon phosphorylation by commercially obtained aurora-A (human, Upstate, Dundee, UK). Assays were performed using 96-well plates and appropriate assay buffers (20 mM Tris, 25 mM β-glycerophosphate, 5 mM EGTA, 1 mM DTT, 1 mM sodium vanadate, pH 7.5), into which were added 2-5 ng of active enzyme with 500 μM substrate (Kemptide). The reactions were initiated by addition of MgATP mix (15 mM MgCl2+100 μM ATP with 15-25 kBq per well of [γ-^32P]-ATP) and mixtures incubated for 30 min at 30° C. Reactions were stopped by addition of an equal volume of 75 mM aq orthophosphoric acid, followed by filtration through p81 filterplates (Whatman Polyfiltronics, Kent, UK). After washing 4 times with 75 mM aq orthophosphoric acid, plates were dried, scintillant added and incorporated radioactivity measured in a scintillation counter (TopCount, Packard Instruments, Pangbourne, Berks, UK). Compounds for kinase assay were made up as 10 mM stocks in DMSO and diluted into 10% DMSO in assay buffer. Data was analysed using curve-fitting software (XLfit version 4.0.2, IDBS, Guildford, Surrey, UK) to determine IC50 values (concentration of test compound which inhibits kinase activity by 50%).

aurora-B = molecular target: T2, aurora-B (Homo sapiens, UniProt Q96GD4); experiment: Aurora-B (human) kinase assay; format: biochemical; settings: Table 3; read-out: Kinase inhibition Aurora B
T2 construct: purchased Upstate, Dundee, UK
T2 sequence (Q96GD4 whole entry): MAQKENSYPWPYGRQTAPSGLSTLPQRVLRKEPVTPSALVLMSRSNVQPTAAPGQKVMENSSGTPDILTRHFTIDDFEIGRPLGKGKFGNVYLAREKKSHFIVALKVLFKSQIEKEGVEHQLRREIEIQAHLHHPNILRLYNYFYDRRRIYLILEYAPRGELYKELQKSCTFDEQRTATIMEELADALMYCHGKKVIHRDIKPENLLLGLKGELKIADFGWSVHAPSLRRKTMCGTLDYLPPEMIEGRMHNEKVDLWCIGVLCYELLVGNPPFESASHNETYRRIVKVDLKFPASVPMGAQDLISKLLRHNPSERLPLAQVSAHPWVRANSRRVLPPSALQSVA
Procedure: as §1, with “obtained aurora-B” for “obtained aurora-A”, “added 75” for “added 2-5”, “of pre-activated” for “of active”, “for 60” for “for 30”
Aurora-B (human, Upstate, Dundee, UK) was pre-activated immediately prior to kinase assay in appropriate buffers (20 mM Tris, 25 mM β-glycerophosphate, 5 mM EGTA, 1 mM DTT, 1 mM sodium vanadate, pH 7.5) by incubating 15 μg of enzyme with 4 μg INCENP (Upstate, Dundee, UK) in the presence of MgATP mix (15 mM MgCl2+100 μM ATP) for 15 min at 30° C.

Row | SMILES | pIC50 (aurora-A) | pIC50 (aurora-B)
1 | C[C@H]1CN(c2ccc(Nc3nccc(-c4c[nH]c5ccccc45)n3)cc2)C[C@H](C)O1 [Compound 30, 4-(1H-indol-3-yl)-N-[(2S,6S)-2,6-dimethylmorpholin-4-ylphenyl]pyrimidin-2-amine] | 5.90 | –
2 | COc1cc(Nc2nccc(-c3c[nH]c4ccccc34)n2)cc(OC)c1 [Compound 14, N-(3,5-dimethoxyphenyl)-4-(1H-indol-3-yl)pyrimidin-2-amine] | 6.25 | –
3 | c1ccc2c(-c3ccnc(Nc4ccc5c(c4)OCO5)n3)c[nH]c2c1 [Compound 17, N-1,3-benzodioxol-5-yl-4-(1H-indol-3-yl)pyrimidin-2-amine] | 6.13 | –
4 | Cn1cc(-c2ccnc(Nc3ccc(N4CCOCC4)cc3)n2)c2ccccc21 [Compound 15, 4-(1-methyl-1H-indol-3-yl)-N-(4-morpholin-4-ylphenyl)pyrimidin-2-amine] | 6.43 | –
5 | CC(=O)N1CCN(c2ccc(Nc3nccc(-c4cn(C)c5ccccc45)n3)cc2)CC1 [Compound 16, 4-(1-methyl-1H-indol-3-yl)-N-(4-acetylpiperazine-1-ylphenyl)pyrimidin-2-amine] | 6.63 | –
6 | C[C@@H]1CN(c2ccc(Nc3nccc(-c4c[nH]c5ccccc45)n3)cc2)C[C@H](C)O1 [Compound 29, 4-(1H-indol-3-yl)-N-[(2R,6S)-2,6-dimethylmorpholin-4-ylphenyl]pyrimidin-2-amine] | 6.41 | –
7 | CN1CCN(c2ccc(Nc3nccc(-c4c[nH]c5ccccc45)n3)cc2)CC1 [Compound 20, 4-(1H-indol-3-yl)-N-(4-methylpiperazin-1-ylphenyl)pyrimidin-2-amine] | 6.36 | –
8 | CC(=O)N1CCN(c2ccc(Nc3nccc(-c4c[nH]c5cc(F)ccc45)n3)cc2)CC1 [Compound 26] | 6.71 | 6.76
9 | Cc1cc(Nc2nccc(-c3c[nH]c4ccccc34)n2)ccc1N1CCSCC1 [Compound 28, 4-(1H-indol-3-yl)-N-(3-methyl-4-thiomorpholin-4-ylphenyl)pyrimidin-2-amine] | 6.07 | 6.20
10 | CC1CC(C)CN(c2ccc(Nc3nccc(-c4c[nH]c5ccccc45)n3)cc2)C1 (centres unmarked) [Compound 31, 4-(1H-indol-3-yl)-N-(3,5-dimethylpiperidin-1-ylphenyl)pyrimidin-2-amine] | 5.35 | –
11 | CC(=O)N1CCN(c2ccc(Nc3nccc(-c4c[nH]c5ccccc45)n3)cc2C)CC1 [Compound 27, 4-(1H-indol-3-yl)-N-[(4-acetylpiperazin-1-yl)-3-methylphenyl]pyrimidin-2-amine] | 6.56 | 6.44
12 | CC(=O)n1cc(-c2ccnc(Nc3ccc(N4CCOCC4)cc3)n2)c2ccccc21 [Compound 19, 4-(1-acetyl-1H-indol-3-yl)-N-(4-morpholin-4-ylphenyl)pyrimidin-2-amine] | 5.66 | –
13 | O=C(C1CC1)n1cc(-c2ccnc(Nc3ccc(N4CCOCC4)cc3)n2)c2ccccc21 [Compound 18, 4-[1-(cyclopropylcarbonyl)-1H-indol-3-yl]-N-(4-morpholin-4-ylphenyl)pyrimidin-2-amine] | 5.47 | –
14 | CC(=O)N1CCN(c2ccc(Nc3nccc(-c4c[nH]c5c(Cl)cccc45)n3)cc2)CC1 [Compound 25] | 6.25 | –
